Starred links: 1 amine or outer side, 2 acyl side, 3 side chain; linkers in the order of their positions; H or OH if unused. Positions of bridges follow the written chain, without caps; N, C: chain ends. Non-standard residues stand in square brackets, D forms with d. Residues, ends and D or L forms follow the SMILES beside them. ξ: configuration not given here. *: point of attachment. pTerphenylCO(4''-OnC5H11) = CCCCCOc1ccc(-c2ccc(-c3ccc(C(=O)*)cc3)cc2)cc1; Orn(4R-OH,5R-OH) = O=C([C@H](C[C@@H](O)[C@@H](O)N[*:3])N[*:1])[*:2]; hTyr(3S-OH,4S-OH) = N[C@H](C(=O)O)[C@H](O)[C@@H](O)c1ccc(O)cc1; Pro(3S-OH,4S-Me) = C[C@H]1CN[C@H](C(=O)O)[C@H]1O; ξPro(4R-OH) = O=C(O)C1C[C@@H](O)CN1
System: Human Astrocytes (HA)
Assay: Oxygen and glucose deprivation followed by replenishment, cell survival (calcein AM), HA
Format: cell-based
Protocol: Anidulafungin and micafungin were tested on Human Renal Glomerular Endothelial Cells (HRGEC, Innoprot P10665), on Human Renal Proximal Tubular Epithelial Cells (HRPTEpiC, Innoprot P10662), on Human Astrocytes (HA, caltag SC-1800), on Human Cardiac Microvascular Endothelial Cells (HCMEC, Caltag SC-6000), on Human Hepatic Sinusoidal Endothelial Cells (HHSEC, Caltag SC-5000), on Rat Primary Kidney Glomerular Endothelial cells (Cellbiologics, RN-6014G) and on Bovine Brain Microvascular Endothelial Cells (BBMEC, Caltag SC-B100).
In a first phase, these isolated, purified and cryopreserved cells are thawed and multiplied according to the supplier's recommendations in T75 or T175 flasks pre-coated with 2 μg of fibronectin/[…] (CORNING) for HRGEC, HCMEC, HHSEC and BBMEC, or 2 μg poly-L-lysin/cm^2 (Caltag SC-0403) for HRPTEpiC and HA, or 15 mL/flask 175 cm^2 gelatin-based solution (Cellbiologics) in the presence of endothelial cell supplemented growth medium ECM (P60104, INNOPROT, Caltag, SC-1001) for HRGEC, HCMEC, HHSEC, RPKGEC or BBMEC, or astrocyte cell supplemented growth medium AM (Caltag SC-1801) for HA or epithelial cell supplemented growth medium EpiCM (P60106, INNOPROT) for HRPTEpiC, at 37° C. under 5% CO2 and saturated humidity until their confluency. They are then harvested by trypsinization according to the method described by the supplier for exactly 5 minutes and then reseeded in new flasks a maximum of three times.
To carry out the oxygen and glucose deprivation test followed by their replenishment, the cells will be seeded in 96-well black plates with transparent flat bottom (GREINER). Once a sufficient number of cells has been obtained to allow seeding of 2000 to 15000 cells per well of 96-well plates depending on the cell type, the cells are seeded in these 96-well plates previously coated with an extracellular matrix as listed above for the flasks. The cells are cultured for 5 to 8 days according to the cell type, in the presence of the same growth medium as in the flask as described above except for HRGEC and HRPTEpiC for which DMEM (DUTSCHER) with 1 g/L of supplemented glucose is used, at 37° C. under 5% CO2 and saturated humidity to obtain confluency.
On the first day of oxygen and glucose deprivation, (5th, 6th, 7th or 8th day of culture), the culture conditions are drastically changed. The medium of all plates is removed and replaced by DMEM (DUTSCHER) medium without glucose and supplemented only with 1% penicillin-streptomycin (DUTSCHER). Anidulafungin or micafungin dissolved in dimethyl sulfoxide (DMSO) is then added to each well at the desired concentration, resulting in a maximum of 1% DMSO, and the plates are placed under hypoxia at <1% 02 and 5% CO2 at 37° C. for 24 hours of culture. Each compound was tested in a concentration range.
After 24 hours, the growth medium is changed and replaced by a richer medium, DMEM (DUTSCHER) at 1 g/L glucose and 2% FBS (INNOPROT) and 1% penicillin-streptomycin (DUTSCHER). These media will have been pre-equilibrated at 37° C. in advance. The cells are then returned to culture at 37° C. under 20% 02 and 5% CO2 for 22h.
After 22 hours of reoxygenation, the potential protective effect of anidulafungin or micafungin is measured by a cell viability test using calcein AM (CORNING), which is a dye substrate. The calcein AM can easily cross the cell membrane of the viable cells. The AM ester groups mask the part of the molecule that chelates calcium. Once inside the cells, the (non-fluorescent) calcein AM is hydrolyzed to (fluorescent) calcein by endogenous esterases. The resulting calcein molecule binds to calcium inside the cell and remains trapped inside the cell. These molecules emit strong green fluorescence when subjected to […] of a particular wavelength (495 nm). Since dead cells lack esterase activity, only living cells are labelled.
This cell viability test is performed in two steps. […]

[1] = [Anidulafungin] log μM 0.1760913
[2] = [Anidulafungin] log μM 0.7781513
[3] = [Anidulafungin] log μM −0.1249387
[4] = [Anidulafungin] log μM −0.30103
[5] = [Anidulafungin] log μM −0.5228788

CCCCCOc1ccc(-c2ccc(-c3ccc(C(=O)N[C@H]4C[C@@H](O)[C@@H](O)NC(=O)[C@@H]5[C@@H](O)[C@@H](C)CN5C(=O)[C@H]([C@@H](C)O)NC(=O)[C@H]([C@H](O)[C@@H](O)c5ccc(O)cc5)NC(=O)C5C[C@@H](O)CN5C(=O)[C@H]([C@@H](C)O)NC4=O)cc3)cc2)cc1 (stereo partly drawn) [Anidulafungin] ({pTerphenylCO(4''-OnC5H11)}-[Orn(4R-OH,5R-OH)]T[ξPro(4R-OH)][hTyr(3S-OH,4S-OH)]T[Pro(3S-OH,4S-Me)]; lactam 1-C)
Globalfluo assay 1 ([Anidulafungin] log μM 0): 11468420 arbitrary units
Globalfluo assay 2 ([Anidulafungin] log μM 0): 12221770 arbitrary units
Globalfluo assay 3 ([Anidulafungin] log μM 0): 14645590 arbitrary units
Mean globalfluo ([Anidulafungin] log μM 0): 12778593 arbitrary units
Survival rate (%) ([Anidulafungin] log μM 0): 15%
Globalfluo assay 1 [1]: 11838960 arbitrary units
Globalfluo assay 2 [1]: 12087610 arbitrary units
Globalfluo assay 3 [1]: 13326480 arbitrary units
Mean globalfluo [1]: 12417683 arbitrary units
Survival rate (%) [1]: 13%
Globalfluo assay 1 ([Anidulafungin] log μM 0.30103): 13177930 arbitrary units
Globalfluo assay 2 ([Anidulafungin] log μM 0.30103): 13103050 arbitrary units
Globalfluo assay 3 ([Anidulafungin] log μM 0.30103): 13640130 arbitrary units
Mean globalfluo ([Anidulafungin] log μM 0.30103): 13307037 arbitrary units
Survival rate (%) ([Anidulafungin] log μM 0.30103): 18%
Globalfluo assay 1 ([Anidulafungin] log μM 0.60206): 12006890 arbitrary units
Globalfluo assay 2 ([Anidulafungin] log μM 0.60206): 13270810 arbitrary units
Globalfluo assay 3 ([Anidulafungin] log μM 0.60206): 14798310 arbitrary units
Mean globalfluo ([Anidulafungin] log μM 0.60206): 13358670 arbitrary units
Survival rate (%) ([Anidulafungin] log μM 0.60206): 18%
Globalfluo assay 1 [2]: 14108250 arbitrary units
Globalfluo assay 2 [2]: 14242150 arbitrary units
Globalfluo assay 3 [2]: 13880120 arbitrary units
Mean globalfluo [2]: 14076840 arbitrary units
Survival rate (%) [2]: 22%
Globalfluo assay 1 ([Anidulafungin] log μM 0.90309): 13394210 arbitrary units
Globalfluo assay 2 ([Anidulafungin] log μM 0.90309): 14898570 arbitrary units
Globalfluo assay 3 ([Anidulafungin] log μM 0.90309): 14923380 arbitrary units
Mean globalfluo ([Anidulafungin] log μM 0.90309): 14405387 arbitrary units
Survival rate (%) ([Anidulafungin] log μM 0.90309): 24%
Globalfluo assay 1 [3]: 9674527 arbitrary units
Globalfluo assay 2 [3]: 11462560 arbitrary units
Globalfluo assay 3 [3]: 11240740 arbitrary units
Mean globalfluo [3]: 10792609 arbitrary units
Survival rate (%) [3]: 4%
Globalfluo assay 1 [4]: 12822290 arbitrary units
Globalfluo assay 2 [4]: 11197900 arbitrary units
Globalfluo assay 3 [4]: 11873360 arbitrary units
Mean globalfluo [4]: 11964517 arbitrary units
Survival rate (%) [4]: 10%
Globalfluo assay 1 [5]: 11050980 arbitrary units
Globalfluo assay 2 [5]: 10353030 arbitrary units
Globalfluo assay 3 [5]: 11612880 arbitrary units
Mean globalfluo [5]: 11005630 arbitrary units
Survival rate (%) [5]: 5%
Globalfluo assay 1 ([Anidulafungin] log μM −1): 9709693 arbitrary units
Globalfluo assay 2 ([Anidulafungin] log μM −1): 10543570 arbitrary units
Globalfluo assay 3 ([Anidulafungin] log μM −1): 12170290 arbitrary units
Mean globalfluo ([Anidulafungin] log μM −1): 10807851 arbitrary units
Survival rate (%) ([Anidulafungin] log μM −1): 4%
Globalfluo assay 1 ([Anidulafungin] log μM −2): 10301450 arbitrary units
Globalfluo assay 2 ([Anidulafungin] log μM −2): 9760112 arbitrary units
Globalfluo assay 3 ([Anidulafungin] log μM −2): 11132460 arbitrary units
Mean globalfluo ([Anidulafungin] log μM −2): 10398007 arbitrary units
Survival rate (%) ([Anidulafungin] log μM −2): 2%
